Results from ChEMBL document CHEMBL5356957, “Design, synthesis, biological evaluation and molecular docking of alkoxyaurones as potent pancreatic lipase inhibitors” (Bioorg Med Chem Lett, 2024).

Tests used:
[1] = molecular target: T1, Pancreatic triacylglycerol lipase (Homo sapiens) (UniProt P16233)
T1 sequence (whole entry): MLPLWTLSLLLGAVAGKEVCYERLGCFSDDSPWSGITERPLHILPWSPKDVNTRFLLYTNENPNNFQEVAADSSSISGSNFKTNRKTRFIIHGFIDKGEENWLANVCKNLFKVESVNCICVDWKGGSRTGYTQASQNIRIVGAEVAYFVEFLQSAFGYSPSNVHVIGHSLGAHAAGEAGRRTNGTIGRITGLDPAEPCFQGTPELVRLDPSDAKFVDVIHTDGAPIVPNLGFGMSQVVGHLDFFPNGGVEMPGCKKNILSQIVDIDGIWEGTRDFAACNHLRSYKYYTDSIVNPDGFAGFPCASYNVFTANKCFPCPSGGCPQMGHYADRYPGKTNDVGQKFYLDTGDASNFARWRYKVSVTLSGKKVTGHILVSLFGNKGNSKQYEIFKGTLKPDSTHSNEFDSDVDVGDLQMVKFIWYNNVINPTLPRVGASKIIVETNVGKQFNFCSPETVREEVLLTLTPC
Description: Binding affinity to pancreatic lipase (unknown origin) assessed as Stem-Volmer quenching constant by fluorescence quenching based spectrophotometer analysis

[2] = molecular target: T1, Pancreatic triacylglycerol lipase (Homo sapiens); remark: listed apart in the source
Description: Binding affinity to pancreatic lipase (unknown origin) assessed as quenching constant by fluorescence quenching based spectrophotometer analysis

[3] = molecular target: T2, Pancreatic triacylglycerol lipase (Homo sapiens, UniProt P16233); assay: Inhibition of pancreatic lipase (unknown origin) by spectrophotometeric analysis
T2 sequence (P16233 whole entry): T1 sequence (whole entry)

Row | Compound | KSV [1] | Kq [2] | IC50 [3] [µM]
1 | O=c1c(O)c(-c2ccc(O)c(O)c2)oc2cc(O)cc(O)c12 | 13.3 10^4L/mol | 8.35 10^13L/mol/s | 
2 | O=C1/C(=C/c2ccccc2)Oc2cc(O)cc(O)c21 | 7.16 10^4L/mol | 4.5 10^13L/mol/s | 58.8
